In ChEMBL document CHEMBL1201862, “PubChem BioAssay data set” (2004):
Calls of active or inactive are those of the source.

Legend:
Phospholipase A2 = Phospholipase A2 (Homo sapiens, UniProt P04054); assay type: functional;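 note: confirmatory dose-response counterscreen on phospholipase A2, testing hits that came from an ultra-high-throughput screen for ATG4B inhibitors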
Aminopeptidase N = molecular target: T1, Aminopeptidase N (Plasmodium falciparum FcB1/Columbia, UniProt O96935); experiment: malaria alanyl aminopeptidase activity blockers – biochemical, fluorogenic H-Leu-NHMec substrate, 1536-well (AID 1445); design: species or system Plasmodium falciparum 3D7, 3D7
T1 sequence (O96935 whole entry): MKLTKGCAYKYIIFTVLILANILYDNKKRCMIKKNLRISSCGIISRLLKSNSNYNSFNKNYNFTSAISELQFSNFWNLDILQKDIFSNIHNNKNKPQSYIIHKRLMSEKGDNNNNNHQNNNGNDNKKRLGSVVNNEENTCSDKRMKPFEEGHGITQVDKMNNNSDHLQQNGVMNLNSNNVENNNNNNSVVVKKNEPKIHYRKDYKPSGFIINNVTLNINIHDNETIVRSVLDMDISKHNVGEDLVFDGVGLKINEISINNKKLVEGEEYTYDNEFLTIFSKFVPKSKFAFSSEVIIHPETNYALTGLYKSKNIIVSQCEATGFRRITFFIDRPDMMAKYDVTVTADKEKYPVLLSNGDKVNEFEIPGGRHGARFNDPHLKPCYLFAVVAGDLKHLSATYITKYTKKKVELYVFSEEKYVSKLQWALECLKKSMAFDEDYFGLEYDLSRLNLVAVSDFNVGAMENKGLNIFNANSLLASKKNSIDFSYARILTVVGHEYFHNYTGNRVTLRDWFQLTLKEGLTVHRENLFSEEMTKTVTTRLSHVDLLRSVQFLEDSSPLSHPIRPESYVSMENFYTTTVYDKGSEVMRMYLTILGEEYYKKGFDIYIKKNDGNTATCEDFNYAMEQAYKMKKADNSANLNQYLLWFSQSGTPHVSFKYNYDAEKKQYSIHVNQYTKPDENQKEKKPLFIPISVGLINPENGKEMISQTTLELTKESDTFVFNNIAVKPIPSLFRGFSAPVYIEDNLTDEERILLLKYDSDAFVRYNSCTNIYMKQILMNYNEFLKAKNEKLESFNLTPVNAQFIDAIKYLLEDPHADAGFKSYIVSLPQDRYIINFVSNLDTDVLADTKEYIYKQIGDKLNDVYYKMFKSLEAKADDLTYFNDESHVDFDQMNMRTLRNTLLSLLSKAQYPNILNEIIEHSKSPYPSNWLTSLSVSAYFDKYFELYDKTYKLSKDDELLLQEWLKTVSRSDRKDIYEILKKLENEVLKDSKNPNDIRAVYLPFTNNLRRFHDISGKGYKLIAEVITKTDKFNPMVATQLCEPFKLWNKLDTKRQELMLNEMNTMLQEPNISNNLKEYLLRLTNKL

Cysteine protease ATG4B = Cysteine protease ATG4B (Homo sapiens, UniProt Q9Y4P1); assay type: functional;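 note: Fluorescence-based dose-response confirmation assay measuring inhibition of ATG4B activity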
[1] = molecular target: T2, Sentrin-specific protease 7 (Homo sapiens, UniProt Q9BQF6); experiment: inhibition of human SENP7 cleavage activity – biochemical, luminescence, SAR follow-up (AID 504497); assay type: functional
T2 sequence (Q9BQF6 whole entry): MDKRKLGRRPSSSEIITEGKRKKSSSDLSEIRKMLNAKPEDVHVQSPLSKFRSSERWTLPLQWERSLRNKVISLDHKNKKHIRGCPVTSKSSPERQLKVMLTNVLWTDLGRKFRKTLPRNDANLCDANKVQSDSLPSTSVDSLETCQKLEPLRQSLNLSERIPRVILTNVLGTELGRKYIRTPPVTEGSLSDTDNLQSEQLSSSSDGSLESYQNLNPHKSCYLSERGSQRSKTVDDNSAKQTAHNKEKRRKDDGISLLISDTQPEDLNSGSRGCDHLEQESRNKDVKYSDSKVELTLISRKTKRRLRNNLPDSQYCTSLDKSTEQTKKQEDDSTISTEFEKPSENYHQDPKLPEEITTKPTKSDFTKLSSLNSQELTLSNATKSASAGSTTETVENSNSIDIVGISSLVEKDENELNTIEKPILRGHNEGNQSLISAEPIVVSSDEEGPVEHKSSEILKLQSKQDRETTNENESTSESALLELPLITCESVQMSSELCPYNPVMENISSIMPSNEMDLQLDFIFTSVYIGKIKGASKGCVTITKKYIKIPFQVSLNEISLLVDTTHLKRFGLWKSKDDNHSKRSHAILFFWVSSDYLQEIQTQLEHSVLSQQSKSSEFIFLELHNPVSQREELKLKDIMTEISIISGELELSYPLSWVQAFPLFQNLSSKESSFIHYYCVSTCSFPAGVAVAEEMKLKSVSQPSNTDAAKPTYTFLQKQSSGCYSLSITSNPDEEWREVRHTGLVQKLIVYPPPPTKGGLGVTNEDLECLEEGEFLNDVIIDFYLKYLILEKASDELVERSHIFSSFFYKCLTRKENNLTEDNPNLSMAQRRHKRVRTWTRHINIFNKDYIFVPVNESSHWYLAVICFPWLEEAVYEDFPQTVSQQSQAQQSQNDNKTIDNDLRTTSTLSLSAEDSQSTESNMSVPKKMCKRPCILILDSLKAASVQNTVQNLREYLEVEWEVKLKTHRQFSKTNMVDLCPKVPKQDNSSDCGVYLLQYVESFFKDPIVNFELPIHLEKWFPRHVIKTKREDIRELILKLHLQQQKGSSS

[2] = molecular target: T3, Sentrin-specific protease 8 (Homo sapiens, UniProt Q96LD8); experiment: inhibition of human SENP8 cleavage activity – biochemical, luminescence, SAR follow-up (AID 504501); assay type: functional
T3 sequence (Q96LD8 whole entry): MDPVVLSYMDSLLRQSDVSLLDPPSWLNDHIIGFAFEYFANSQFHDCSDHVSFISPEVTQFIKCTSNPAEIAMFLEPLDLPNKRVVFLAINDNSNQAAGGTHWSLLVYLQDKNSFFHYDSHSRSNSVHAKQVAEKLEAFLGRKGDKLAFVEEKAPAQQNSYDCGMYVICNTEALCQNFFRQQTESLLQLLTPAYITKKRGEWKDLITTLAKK

Caspase-3 [3] = molecular target: T4, Caspase-3 (Homo sapiens, UniProt P42574); experiment: SAR Analysis of small molecule inhibitors of Sentrin-specific proteases (SENPs) using a Caspase-3 Selectivity assay. [Related pubchem assays (depositor defined):AID2540, AID2599, AID434973, AID489001]; assay type: functional
T4 sequence (P42574 whole entry): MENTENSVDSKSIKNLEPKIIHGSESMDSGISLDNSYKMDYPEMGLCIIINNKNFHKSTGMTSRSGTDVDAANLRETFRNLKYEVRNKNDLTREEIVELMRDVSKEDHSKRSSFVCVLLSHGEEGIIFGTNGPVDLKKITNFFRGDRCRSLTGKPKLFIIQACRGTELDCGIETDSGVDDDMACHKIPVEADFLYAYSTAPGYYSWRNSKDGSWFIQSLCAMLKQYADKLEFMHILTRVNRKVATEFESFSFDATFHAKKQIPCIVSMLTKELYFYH

[4] = molecular target: T5, Sentrin-specific protease 6 (Homo sapiens, UniProt Q9GZR1); experiment: SAR Analysis of small molecule inhibitors of Sentrin-specific protease 6 (SENP6) using a Luminescent assay. [Related pubchem assays (depositor defined):AID2582, AID2599]; assay type: functional
T5 sequence (Q9GZR1 whole entry): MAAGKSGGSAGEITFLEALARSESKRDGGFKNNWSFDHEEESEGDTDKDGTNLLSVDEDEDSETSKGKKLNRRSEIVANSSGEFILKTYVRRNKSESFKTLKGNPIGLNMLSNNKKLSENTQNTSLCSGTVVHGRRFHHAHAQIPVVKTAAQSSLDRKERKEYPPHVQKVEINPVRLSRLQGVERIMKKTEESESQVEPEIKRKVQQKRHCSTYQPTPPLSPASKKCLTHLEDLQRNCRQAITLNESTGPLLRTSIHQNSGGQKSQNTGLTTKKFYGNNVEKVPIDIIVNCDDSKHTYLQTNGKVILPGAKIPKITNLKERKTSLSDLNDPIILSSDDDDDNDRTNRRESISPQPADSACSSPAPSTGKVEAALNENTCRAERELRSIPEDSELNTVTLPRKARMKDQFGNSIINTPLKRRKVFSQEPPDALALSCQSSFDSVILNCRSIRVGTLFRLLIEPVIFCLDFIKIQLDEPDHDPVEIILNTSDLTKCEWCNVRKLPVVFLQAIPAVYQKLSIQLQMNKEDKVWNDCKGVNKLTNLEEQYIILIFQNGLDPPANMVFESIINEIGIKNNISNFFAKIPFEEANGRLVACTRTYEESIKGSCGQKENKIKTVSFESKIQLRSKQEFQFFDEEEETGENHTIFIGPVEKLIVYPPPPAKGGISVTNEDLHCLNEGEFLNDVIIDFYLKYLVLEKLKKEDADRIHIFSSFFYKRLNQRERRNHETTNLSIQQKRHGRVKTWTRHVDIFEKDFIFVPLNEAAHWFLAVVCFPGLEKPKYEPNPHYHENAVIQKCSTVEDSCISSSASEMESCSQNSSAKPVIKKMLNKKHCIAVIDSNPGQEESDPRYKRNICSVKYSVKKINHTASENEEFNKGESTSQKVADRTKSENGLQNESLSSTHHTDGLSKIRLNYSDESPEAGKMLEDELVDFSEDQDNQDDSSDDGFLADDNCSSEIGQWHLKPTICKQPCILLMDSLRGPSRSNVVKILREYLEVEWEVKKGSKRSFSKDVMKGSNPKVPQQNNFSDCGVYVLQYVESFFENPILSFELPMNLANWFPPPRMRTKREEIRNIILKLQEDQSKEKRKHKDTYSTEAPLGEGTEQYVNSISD

[5] = molecular target: T2, Sentrin-specific protease 7; assay type: functional
[6] = molecular target: FAD-linked sulfhydryl oxidase ALR (Homo sapiens, UniProt P55789); experiment: ALR-catalysed DTT oxidation blockers – biochemical, H2O2 detection, luminescence, cherry-pick, dose response (AID 493248)
[7] = molecular target: T5, Sentrin-specific protease 6; assay type: functional
Caspase-3 [8] = molecular target: T4, Caspase-3; assay type: functional
[9] = molecular target: T3, Sentrin-specific protease 8; assay type: functional
[10] = molecular target: T6, Endoribonuclease toxin MazF (Escherichia coli K-12, UniProt P0AE70); experiment: activation of MazEF endoribonuclease cleavage – biochemical, fluorescence, single-stranded RNA substrate, uHTS hits, dose response (AID 588481); assay type: functional
T6 sequence (P0AE70 whole entry): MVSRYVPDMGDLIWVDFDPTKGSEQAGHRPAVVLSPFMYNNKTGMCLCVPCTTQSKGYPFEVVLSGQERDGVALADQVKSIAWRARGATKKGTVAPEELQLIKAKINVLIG

[11] = molecular target: T7, RNA-binding protein pos-1 (Caenorhabditis elegans, UniProt G5EF15); experiment: disruptors of C. elegans POS-1 RNA interaction – biochemical, fluorescence polarization, dose response (AID 1964);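 note: purified POS-1 fused to maltose binding protein made in E. coli; potency of compounds blocking POS-1 binding to fluorescent RNA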
T7 sequence (G5EF15 whole entry): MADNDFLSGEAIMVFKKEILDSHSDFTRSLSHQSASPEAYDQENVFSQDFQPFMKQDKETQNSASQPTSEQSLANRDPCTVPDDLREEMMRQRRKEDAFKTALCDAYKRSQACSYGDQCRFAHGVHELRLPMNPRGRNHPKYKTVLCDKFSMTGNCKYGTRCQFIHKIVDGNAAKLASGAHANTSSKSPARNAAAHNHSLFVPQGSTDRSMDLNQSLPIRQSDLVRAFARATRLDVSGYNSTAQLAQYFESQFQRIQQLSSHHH

[12] = molecular target: T8, Zinc finger protein mex-5 (Caenorhabditis elegans, UniProt Q9XUB2); experiment: potency of MEX-5 RNA-binding blockers – biochemical, C. elegans, fluorescence polarization, dose response (AID 1960)
T8 sequence (Q9XUB2 whole entry): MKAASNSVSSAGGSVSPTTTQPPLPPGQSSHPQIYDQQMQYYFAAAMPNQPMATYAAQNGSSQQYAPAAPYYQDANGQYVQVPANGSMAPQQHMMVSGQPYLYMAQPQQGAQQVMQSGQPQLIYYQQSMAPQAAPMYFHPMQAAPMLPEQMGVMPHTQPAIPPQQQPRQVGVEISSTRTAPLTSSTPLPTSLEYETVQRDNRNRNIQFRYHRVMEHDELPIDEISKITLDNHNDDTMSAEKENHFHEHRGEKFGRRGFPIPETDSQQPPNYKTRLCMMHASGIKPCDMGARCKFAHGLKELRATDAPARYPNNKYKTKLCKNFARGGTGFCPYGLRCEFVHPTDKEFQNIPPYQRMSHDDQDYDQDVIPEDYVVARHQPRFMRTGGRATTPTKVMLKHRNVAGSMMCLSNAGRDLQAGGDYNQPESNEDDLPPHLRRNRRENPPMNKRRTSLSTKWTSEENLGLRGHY

[13] = molecular target: T6, Endoribonuclease toxin MazF; experiment: substrate-only fluorescence increase artefacts – biochemical, single-stranded RNase substrate, counter-screen for MazEF activator project, dose response (AID 588502); assay type: functional
[14] = HEK-293T cell viability reduction – luminescence, B-cell screen hits, cytotoxicity control for BCR NF-kB inhibitor project, dose response (AID 489021); assay type: functional, cell-based;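 note: HEK-293T cells carrying an NF-kB luciferase reporter; cells exposed to compound for about 14 hours before viability readout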

Phospholipase A2, sequence (P04054 whole entry): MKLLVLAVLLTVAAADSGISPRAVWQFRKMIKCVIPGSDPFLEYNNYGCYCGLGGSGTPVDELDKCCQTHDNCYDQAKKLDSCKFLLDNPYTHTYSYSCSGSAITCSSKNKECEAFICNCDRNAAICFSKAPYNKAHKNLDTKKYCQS
Cysteine protease ATG4B, sequence (Q9Y4P1 whole entry): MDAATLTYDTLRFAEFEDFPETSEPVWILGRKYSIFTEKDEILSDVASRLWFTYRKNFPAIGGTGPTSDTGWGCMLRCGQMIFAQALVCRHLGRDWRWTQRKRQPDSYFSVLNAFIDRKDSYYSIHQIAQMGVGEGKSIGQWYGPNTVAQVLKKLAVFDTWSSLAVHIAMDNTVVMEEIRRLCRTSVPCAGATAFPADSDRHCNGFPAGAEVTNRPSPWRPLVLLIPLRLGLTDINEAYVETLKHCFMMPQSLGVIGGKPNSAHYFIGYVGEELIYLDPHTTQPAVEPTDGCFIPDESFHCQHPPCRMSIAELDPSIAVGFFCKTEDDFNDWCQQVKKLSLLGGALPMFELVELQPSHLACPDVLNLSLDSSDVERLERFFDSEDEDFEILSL
FAD-linked sulfhydryl oxidase ALR, sequence (P55789 whole entry): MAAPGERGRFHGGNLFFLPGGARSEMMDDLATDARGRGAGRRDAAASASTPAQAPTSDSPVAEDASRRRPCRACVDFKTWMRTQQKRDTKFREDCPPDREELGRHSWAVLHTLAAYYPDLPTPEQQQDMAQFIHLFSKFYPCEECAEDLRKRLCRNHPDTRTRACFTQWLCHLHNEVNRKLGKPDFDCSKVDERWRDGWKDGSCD

In the case of `COc1cc(/C=C/C(=O)O)cc(S(=O)(=O)Nc2cc(Cl)c(Cl)cc2Cl)c1OC`, the IC50 (Phospholipase A2) is reported as 34.1 µM (inactive), the IC50 (Aminopeptidase N) is reported as 94.2 µM (active) and the IC50 (Cysteine protease ATG4B) is reported as 6.7 µM (active).

For `O=[N+]([O-])c1ccc(/N=C/c2c[nH]c3ccccc23)cc1`, the IC50 [1] was > 99 µM (inactive), the IC50 [2] was > 99 µM (inactive) and the IC50 (Caspase-3 [3]) was > 99 µM (inactive). For the same molecule, the IC50 [4] was > 99 µM (inactive).

For `C/C(=N/O)c1ccc2ccc3ccccc3c2c1`, the IC50 [5] was 9.17 µM (active), the AC50 [6] was 5.54 µM (active) and the IC50 [7] was 16.7 µM (active). For the same molecule, the IC50 (Caspase-3 [8]) was 38 µM (active) and the IC50 [9] was 21.6 µM (active).

For `Cc1cccc(CN2C(=O)N/C(=C/c3ccc(C)s3)C2=O)c1`, the EC50 [10] was > 99 µM (inactive), the EC50 [11] was 27.5 µM (active) and the EC50 [12] was > 300 µM (inconclusive). For the same molecule, the EC50 [13] was 87.8 µM (inactive).

In the case of `COc1ccccc1/C=C1/SC(=S)N(CCC(=O)Nc2cccnc2)C1=O`, the EC50 [10] is reported as 52 µM (inactive), the EC50 [11] is reported as 69.2 µM (active) and the EC50 [12] is reported as 37.6 µM (inconclusive). For the same molecule, the IC50 [14] was > 80 µM (inactive) and the EC50 [13] was > 99 µM (inactive).
